From patent US20230095021A1, “MODULATORS OF TDP-43” (Alteron Therapeutics, Inc., priority 2019, published 2023)

Test system: CFTR
Assay: CFTR protein levels, Western blot in U-87 MG cells
Format: cell-based
Method: Additional experiments were performed to determine how ALT-59 treatment affects CFTR protein levels. U-87 MG cells were maintained at 37° C. in a CO2 incubator in Dulbecco's Modified Eagle's Medium (DMEM) supplemented with 10% fetal bovine serum (FBS) and 1% of penicillin/streptomycin (Invitrogen), and were treated with DMSO, 3 μM, or 6 μM ALT-59. Cells were lysed using RIPA buffer (25 mM Tris, pH 7.4, 150 mM NaCl, 0.1% SDS, 0.5% sodium deoxycholate, 1% Triton X-100, Complete protease inhibitor cocktail). Western blotting was performed using anti-CFTR (Novus Biologicals) and anti-beta-actin (Sigma-Aldrich) antibodies. Images were obtained using Odyssey imager and quantified using the Odyssey software (LI-COR).

CN(C)c1ccc(C2Nc3ccc4ccccc4c3C3=C2C(=O)CC(C)(C)C3)cc1Br (centres unmarked) [ALT-59, 5-(3-bromo-4-(dimethylamino)phenyl)-2,2-dimethyl-2,3,5,6-tetrahydrobenzo[a]phenanthridin-4(1H)-one]
increase of CFTR300 level (3 μM): 10 fold
level of CFTR160 (3 μM): did not affect
increase of CFTR160 level (6 μM): 30%
increase of CFTR240 level (6 μM): 3 fold
increase of CFTR300 level (6 μM): 18 fold
